The source of these data is paper PMC13397332 (Biochimica et biophysica acta. Proteins and proteomics, 2025).

This assay addresses T1, OrnR (STM OrnR, ornithine racemase) (Salmonella enterica, UniProt Q8ZNC6).
T1 sequence (Q8ZNC6 1-367): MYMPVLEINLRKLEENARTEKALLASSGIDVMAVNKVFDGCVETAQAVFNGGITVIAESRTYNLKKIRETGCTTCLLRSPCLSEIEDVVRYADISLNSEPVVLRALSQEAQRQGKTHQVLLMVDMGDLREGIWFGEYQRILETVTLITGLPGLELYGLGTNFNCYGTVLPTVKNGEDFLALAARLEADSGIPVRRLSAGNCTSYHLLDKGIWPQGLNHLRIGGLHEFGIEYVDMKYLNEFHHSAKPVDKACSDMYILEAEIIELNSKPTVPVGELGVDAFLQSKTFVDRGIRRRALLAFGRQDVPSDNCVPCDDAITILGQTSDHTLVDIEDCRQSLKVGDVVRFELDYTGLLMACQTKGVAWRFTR
To be noted: read-out: S0.5; D to L direction, pH 9.2, 37 °C, 0.8 mM PLP; sigmoid, Hill fit.

For `NCCC[C@@H](N)C(=O)O` [D-ornithine], the Km stood at 12.8 ± 2.7 mM.
